Results taken from US20250129135A1, “Multi-Agonist and Use Thereof” (priority 2021, published 2025).
pEC50: −log10 of the molar value. Starred links: 1 amine or outer side, 2 acyl side, 3 side chain; linkers in the order of their positions; H or OH if unused. Non-standard residues stand in square brackets, D forms with d. Residues, ends and D or L forms follow the SMILES beside them. Groups on a side chain read outwards from the residue. *: point of attachment. C20 diacid = O=C(O)CCCCCCCCCCCCCCCCCCC(=O)*; αMePhe(2-F) = C[C@](N)(Cc1ccccc1F)C(=O)O; γGlu = O=C(O)[C@H](CCC(=O)[*:2])N[*:1]; αMeF = C[C@](N)(Cc1ccccc1)C(=O)O; αMeL = CC(C)C[C@](C)(N)C(=O)O; AEEA = NCCOCCOCC(=O)O; Ac3c = NC1(C(=O)O)CC1; Aib = CC(C)(N)C(=O)O

How the values were obtained:
[1] = tested on: human primary liver cells; assay type: cell-based; details: for Rel. A (Relative Activity) on human primary liver cells: relative to GCG
Outline: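 cAMP readout after 60 min with detection reagent, following 60 min room-temperature compound incubation. Cells were primary human liver cells thawed at 37° C and resuspended in HBSS.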

[2] = tested on: RIN-m5F cells; assay type: cell-based, rat; details: for Rel. A (Relative Activity) on RIN-m5F: relative to GLP-1(7-37)
Outline: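 After 60 min room-temperature exposure of HBSS-suspended RIN-m5F cells to compound and another 60 min with detection reagent, cellular cAMP level was determined.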

[3] = molecular target: T1, Human GCG R (Homo sapiens, UniProt P47871); test: cAMP (HTRF) activity in HEK-293 cells stably overexpressing human GCG receptor; assay type: cell-based; details: EC50 of human GCG / EC50 of compound
T1 construct: expressed in transfected cells; host or cells: HEK-293
Outline: (§1)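 Cells resuspended in HBSS are incubated with compound for 60 min at room temperature, then with HTRF cAMP detection reagent for a further 60 min. Concentration-response fits give agonist EC50 values in nM.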

[4] = tested on: 3T3-L1 adipocytes; details: for Rel. A (Relative Activity) on 3T3-L1 adipocyte: relative to GIP
Outline: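 Compound-induced cAMP was measured in mature 3T3-L1 adipocytes after 60 min room-temperature exposure to a 10-concentration, 3-fold dilution series, followed by 60 min with kit detection reagent and curve fitting. Differentiation used IBMX/dexamethasone/insulin (5 days), insulin with 10 uM rosiglitazone (3 days), then 2–3 days in 10% FBS.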

[5] = molecular target: T2, Human GIP R (Homo sapiens, UniProt P48546); test: cAMP (HTRF) activity in CHO cells stably overexpressing GIP receptor; assay type: cell-based; details: for Human GIP R Rel. A (Relative Activity): EC50 of human GIP / EC50 of compound
T2 construct: expressed in transfected cells; host or cells: CHO
T2 sequence (P48546 22-466): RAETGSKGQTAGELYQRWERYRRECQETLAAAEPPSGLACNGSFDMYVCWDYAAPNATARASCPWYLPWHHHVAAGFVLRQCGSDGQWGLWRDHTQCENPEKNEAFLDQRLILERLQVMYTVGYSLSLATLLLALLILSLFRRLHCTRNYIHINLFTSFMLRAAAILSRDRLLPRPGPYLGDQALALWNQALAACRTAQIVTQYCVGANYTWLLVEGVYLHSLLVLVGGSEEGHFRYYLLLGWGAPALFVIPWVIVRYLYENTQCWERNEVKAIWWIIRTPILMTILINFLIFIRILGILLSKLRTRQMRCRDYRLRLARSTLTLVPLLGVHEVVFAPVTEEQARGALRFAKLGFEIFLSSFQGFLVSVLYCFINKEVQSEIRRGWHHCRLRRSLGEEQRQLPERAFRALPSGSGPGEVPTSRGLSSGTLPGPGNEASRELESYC
Outline: as §1

[6] = molecular target: Human GLP-1R (Homo sapiens, UniProt P43220); test: cAMP (HTRF) activity in HEK-293 cells stably overexpressing human GLP-1 receptor; assay type: cell-based; set-up: expressed in transfected cells; host or cells: HEK-293; details: for Human GLP-1R Rel. A (Relative Activity): EC50 of human GLP-1 (7-37) / EC50 of compound; for pEC50: stable transfected cell cAMP activity, at least 3 independent tests
Outline: as §1

[7] = tested on: C57 BL/6J DIO mice; test: In vivo pharmacodynamics in high-fat diet induced obesity (DIO) mice; set-up: species or system mouse; details: Table 9-1; 3 nmol/kg; Day 15; Mean±SEM
Text: High-fat diet induced obesity (DIO) mice have characteristics such as obesity, elevated blood sugar, insulin resistance, and lipid abnormalities, all of which are very significant metabolic syndromes similar to a human body. The effects of the compounds of the present application on body weight, food intake, blood sugar, and lipids in C57 BL/6J DIO mice were studied.
Obesity was induced in mice by feeding with a high-fat diet (60 kcal % of calories from fat). […] After grouping, one animal was raised in each cage for one week, during which each of the animals was injected subcutaneously (S.C.) with a solvent (1×PBS, 5 ml/kg) to pre-adapt the experimental operation process.
After the preparation of animals, vehicle control or compounds were administered to groups of animals by subcutaneous injection, in which the compounds were dissolved in 1×PBS, the dosage was 5 ml/kg, and the administration operation was started at 9:00 am and conducted once every three days (Q3D) for 15 days. Throughout the entire experimental study, animal weight and food intake were measured daily before administration, and compared with initial weight and food intake of the same animal before administration to calculate a percentage change in animal weight (%) and cumulative food intake, so as to evaluate the impact of compounds on changes in body weight and food intake.
At the end point of the experiment (Day 15), the body weight of the mice was measured, and then fasting blood glucose was measured by taking blood from the tail tip of broken tail without anesthesia. After the blood collection, the animals were anesthetized with CO2 and euthanized. Then, blood was taken from the heart and plasma was separated by centrifugation. The plasma was used to measure total cholesterol (TC), low-density lipoprotein cholesterol (LDL-C), triglycerides (TG), and blood insulin content. The liver was separated for homogenization, and then centrifuged to obtain the supernatant for determining triglyceride content in the liver.
All results were expressed in Mean±SEM, and the results were analyzed by one-way ANOVA using GraphPad Prism 5 software, followed by Dunnett's post hoc test compared to the Vehicle control group. The difference at the p<0.05 level was considered statistically significant.

T1 sequence (P47871 26-477): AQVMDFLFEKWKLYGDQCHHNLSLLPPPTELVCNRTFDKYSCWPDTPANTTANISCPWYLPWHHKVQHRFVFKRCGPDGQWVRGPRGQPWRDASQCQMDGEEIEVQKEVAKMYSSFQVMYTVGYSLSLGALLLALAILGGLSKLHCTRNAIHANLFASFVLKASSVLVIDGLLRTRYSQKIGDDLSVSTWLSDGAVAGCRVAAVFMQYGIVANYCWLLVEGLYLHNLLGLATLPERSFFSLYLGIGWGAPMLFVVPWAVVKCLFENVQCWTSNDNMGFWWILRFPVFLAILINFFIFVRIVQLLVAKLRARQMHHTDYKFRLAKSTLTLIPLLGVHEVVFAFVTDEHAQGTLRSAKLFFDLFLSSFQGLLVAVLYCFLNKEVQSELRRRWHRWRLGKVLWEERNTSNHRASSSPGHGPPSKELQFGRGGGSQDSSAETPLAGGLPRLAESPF
Sequence of Human GLP-1R (P43220 24-463): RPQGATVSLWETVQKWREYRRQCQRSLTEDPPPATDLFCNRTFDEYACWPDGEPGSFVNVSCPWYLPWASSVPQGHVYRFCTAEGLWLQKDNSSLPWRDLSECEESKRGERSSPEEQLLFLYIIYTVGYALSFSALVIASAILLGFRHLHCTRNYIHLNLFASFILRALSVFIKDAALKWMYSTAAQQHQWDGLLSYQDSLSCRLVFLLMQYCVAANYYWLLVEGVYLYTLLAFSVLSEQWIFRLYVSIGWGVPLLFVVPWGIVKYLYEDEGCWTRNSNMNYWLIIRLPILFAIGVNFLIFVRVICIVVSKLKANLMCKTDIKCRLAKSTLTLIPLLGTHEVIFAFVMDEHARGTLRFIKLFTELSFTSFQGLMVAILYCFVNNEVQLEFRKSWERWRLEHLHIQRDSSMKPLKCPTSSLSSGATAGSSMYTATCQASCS

pEC50 [1]	pEC50 [2]	Human GCG R Rel. A (Relative Activity) [3] [%]	Human GIP R Rel. A (Relative Activity) [5] [%]	pEC50 ([5]; stable transfected cell cAMP activity, at least 3 independent tests)	Human GLP-1R Rel. A (Relative Activity) [6] [%]	pEC50 [6]	SMILES	Rel. A (Relative Activity) on human primary liver cells [1] [%]	Rel. A (Relative Activity) on RIN-m5F [2] [%]	pEC50 [4]	Rel. A (Relative Activity) on 3T3-L1 adipocyte [4] [%]	Liver TG [7] [mg]
8.29	9.56	75.00	861.90	10.68	93.62	–	CC[C@H](C)[C@H](NC(=O)[C@H](Cc1ccccc1)NC(=O)[C@H](C)NC(=O)C(C)(C)NC(=O)[C@H](CCC(N)=O)NC(=O)[C@H](C)NC(=O)[C@H](CCCCNC(=O)COCCOCCNC(=O)COCCOCCNC(=O)CC[C@H](NC(=O)CCCCCCCCCCCCCCCCCCC(=O)O)C(=O)O)NC(=O)[C@H](CCCCN)NC(=O)[C@H](CC(=O)O)NC(=O)[C@H](CC(C)C)NC(=O)[C@H](Cc1ccccc1)NC(=O)[C@@H](NC(=O)[C@H](CO)NC(=O)[C@H](Cc1ccc(O)cc1)NC(=O)[C@H](CC(=O)O)NC(=O)[C@H](CO)NC(=O)[C@@H](NC(=O)[C@](C)(Cc1ccccc1F)NC(=O)[C@@H](NC(=O)CNC(=O)[C@H](CCC(N)=O)NC(=O)C(C)(C)NC(=O)[C@@H](N)Cc1ccc(O)cc1)[C@@H](C)O)[C@@H](C)O)[C@@H](C)CC)C(=O)N[C@@H](CCC(=O)O)C(=O)N[C@@H](Cc1ccccc1)C(=O)N[C@@H](CC(C)C)C(=O)N[C@@H](CC(C)C)C(=O)N[C@@H](CCC(=O)O)C(=O)N[C@@H](CO)C(=O)N[C@@H](Cc1c[nH]cn1)C(=O)N1CCC[C@H]1C(=O)N[C@@H](CO)C(=O)N[C@@H](CO)C(=O)NCC(=O)N[C@@H](C)C(=O)N1CCC[C@H]1C(=O)N1CCC[C@H]1C(=O)NC1(C(=O)N[C@@H](CO)C(N)=O)CC1 [Compound 10] (H-Y[Aib]QGT[αMePhe(2-F)]TSDYSIFLDKK([AEEA-AEEA-γGlu-C20 diacid])AQ[Aib]AFIEFLLESHPSSGAPP[Ac3c]S-NH2)	75.00	376.64	8.21	61.76	81.6 ± 8.50
8.87	9.44	11.52	258.57	–	488.89	11.05	CC[C@H](C)[C@H](NC(=O)[C@H](Cc1ccccc1)NC(=O)[C@H](C)NC(=O)C(C)(C)NC(=O)[C@H](CCC(N)=O)NC(=O)[C@H](C)NC(=O)[C@H](CCCCNC(=O)COCCOCCNC(=O)COCCOCCNC(=O)CC[C@H](NC(=O)CCCCCCCCCCCCCCCCCCC(=O)O)C(=O)O)NC(=O)[C@H](CCCCN)NC(=O)[C@H](CC(=O)O)NC(=O)[C@H](CC(C)C)NC(=O)[C@H](CC(C)C)NC(=O)[C@@H](NC(=O)[C@H](CO)NC(=O)[C@H](Cc1ccc(O)cc1)NC(=O)[C@H](CC(=O)O)NC(=O)[C@H](CO)NC(=O)[C@@H](NC(=O)[C@](C)(Cc1ccccc1)NC(=O)[C@@H](NC(=O)CNC(=O)[C@H](CCC(N)=O)NC(=O)C(C)(C)NC(=O)[C@@H](N)Cc1ccc(O)cc1)[C@@H](C)O)[C@@H](C)O)[C@@H](C)CC)C(=O)N[C@@H](CCC(=O)O)C(=O)N[C@@H](Cc1ccccc1)C(=O)N[C@@H](CC(C)C)C(=O)N[C@@H](CC(C)C)C(=O)N[C@@H](CCC(=O)O)C(=O)N[C@@H](CO)C(=O)N[C@@H](Cc1c[nH]cn1)C(=O)N1CCC[C@H]1C(=O)N[C@@H](CO)C(=O)N[C@@H](CO)C(=O)NC(C)(C)C(=O)N[C@@H](Cc1c[nH]cn1)C(=O)N1CCC[C@H]1C(=O)N1CCC[C@H]1C(=O)NC1(C(=O)N[C@@H](CO)C(N)=O)CC1 [Compound 42] (H-Y[Aib]QGT[αMeF]TSDYSILLDKK([AEEA-AEEA-γGlu-C20 diacid])AQ[Aib]AFIEFLLESHPSS[Aib]HPP[Ac3c]S-NH2; N-terminus assumed)	285.26	287.47	8.56	139.17	–
9.33	9.59	44.88	441.46	–	440.00	11.00	CC[C@H](C)[C@H](NC(=O)[C@H](Cc1ccccc1)NC(=O)[C@H](C)NC(=O)C(C)(C)NC(=O)[C@H](CCC(N)=O)NC(=O)[C@H](C)NC(=O)[C@H](CCCCNC(=O)COCCOCCNC(=O)COCCOCCNC(=O)CC[C@H](NC(=O)CCCCCCCCCCCCCCCCCCC(=O)O)C(=O)O)NC(=O)[C@H](CCCCN)NC(=O)[C@H](CC(=O)O)NC(=O)[C@H](CC(C)C)NC(=O)[C@](C)(CC(C)C)NC(=O)[C@@H](NC(=O)[C@H](CO)NC(=O)[C@H](Cc1ccc(O)cc1)NC(=O)[C@H](CC(=O)O)NC(=O)[C@H](CO)NC(=O)[C@@H](NC(=O)[C@](C)(Cc1ccccc1F)NC(=O)[C@@H](NC(=O)CNC(=O)[C@H](CCC(N)=O)NC(=O)C(C)(C)NC(=O)[C@@H](N)Cc1ccc(O)cc1)[C@@H](C)O)[C@@H](C)O)[C@@H](C)CC)C(=O)N[C@@H](CCC(=O)O)C(=O)N[C@@H](Cc1ccc(O)cc1)C(=O)N[C@@H](CC(C)C)C(=O)N[C@@H](CC(C)C)C(=O)N[C@@H](CCC(=O)O)C(=O)N[C@@H](CO)C(=O)N[C@@H](Cc1c[nH]cn1)C(=O)N1CCC[C@H]1C(=O)N[C@@H](CO)C(=O)N[C@@H](CO)C(=O)NC(C)(C)C(=O)N[C@@H](Cc1c[nH]cn1)C(=O)N1CCC[C@H]1C(=O)N1CCC[C@H]1C(=O)NC1(C(=O)N[C@@H](CO)C(N)=O)CC1 [Compound 43] (H-Y[Aib]QGT[αMePhe(2-F)]TSDYSI[αMeL]LDKK([AEEA-AEEA-γGlu-C20 diacid])AQ[Aib]AFIEYLLESHPSS[Aib]HPP[Ac3c]S-NH2)	840.39	396.92	8.87	279.97	–
